Results: patent US20240246964A1 (Arbutus Biopharma Corporation, priority 2021, published 2024)

Molecular target: human PD-L1 (Homo sapiens (Human), UniProt Q9NZQ7)
Experiment: T cell activation luciferase reporter cell culture system (T Cell Activation Assay)
Type: cell-based
Conditions: luciferase reporter assay; PD-L1 aAPC/CHO-K1 cells with PD-1 effector Jurkat T cells

human PD-L1, sequence (Q9NZQ7 19-290): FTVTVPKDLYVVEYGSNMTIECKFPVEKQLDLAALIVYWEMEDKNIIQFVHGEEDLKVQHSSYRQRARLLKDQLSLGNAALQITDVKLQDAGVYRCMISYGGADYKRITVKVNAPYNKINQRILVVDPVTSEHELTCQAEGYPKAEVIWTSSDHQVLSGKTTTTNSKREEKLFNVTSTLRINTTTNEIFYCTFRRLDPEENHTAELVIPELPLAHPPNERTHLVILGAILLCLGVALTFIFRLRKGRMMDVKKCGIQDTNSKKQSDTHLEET

Compound	EC50 [nM]
COc1cc(-c2nccc(-c3cccc(-c4ccc(CN5CC6(CNC(=O)C6)C5)c(OC)n4)c3Cl)c2Cl)ccc1CN1CC(C)(O)C1 [Example 498, 2-((6-(2-Chloro-3-(3-chloro-2-(4-((3-hydroxy-3-methylazetidin-1-yl)methyl)-3-methoxyphenyl)pyridin-4-yl)phenyl)-2-methoxypyridin-3-yl)methyl)-2,6-diazaspiro[3.4]octan-7-one]	26.5
COc1cc(-c2nccc(-c3cccc(-c4ccc(CN5CC6(CNC(=O)C6)C5)c(OC)n4)c3Cl)c2Cl)ccc1CN[C@H]1CC[C@H](O)CC1 [Example 502, 2-((6-(2-Chloro-3-(3-chloro-2-(4-((((1r,4r)-4-hydroxycyclohexyl)-amino)-methyl)-3-methoxyphenyl)pyridin-4-yl)phenyl)-2-methoxypyridin-3-yl)methyl)-2,6-diazaspiro[3.4]octan-7-one]	28.9
COc1cc(-c2nccc(-c3cccc(-c4ccc(CN5CC6(CNC(=O)C6)C5)c(OC)n4)c3Cl)c2Cl)ccc1CN[C@H]1CC[C@@H](O)CC1 [Example 503, 2-((6-(2-Chloro-3-(3-chloro-2-(4-((((1s,4s)-4-hydroxycyclohexyl)-amino)-methyl)-3-methoxyphenyl)pyridin-4-yl)phenyl)-2-methoxypyridin-3-yl)methyl)-2,6-diazaspiro[3.4]octan-7-one]	36.2
COc1cc(-c2nccc(-c3cccc(-c4ccc(CNCC5(O)CC5)c(OC)n4)c3Cl)c2Cl)ccc1CNCC1(O)CC1 [Example 504, 1-((((6-(2-Chloro-3-(3-chloro-2-(4-((((1-hydroxycyclopropyl)methyl)amino)methyl)-3-methoxyphenyl)pyridin-4-yl)phenyl)-2-methoxypyridin-3-yl)methyl)amino)methyl)cyclopropan-1-ol]	36.4
COc1cc(-c2nccc(-c3cccc(-c4ccc(CNCC(F)F)c(OC)n4)c3Cl)c2Cl)ccc1CNCC(F)F [Example 505, N-((6-(2-Chloro-3-(3-chloro-2-(4-(((2,2-difluoroethyl)amino)methyl)-3-methoxyphenyl)pyridin-4-yl)phenyl)-2-methoxypyridin-3-yl)methyl)-2,2-difluoroethan-1-amine]	≥ 10000
COc1cc(-c2nccc(-c3cccc(-c4ccc(CNC5CCOCC5)c(OC)n4)c3Cl)c2Cl)ccc1CN1CC2(CNC(=O)C2)C1 [Example 506, 2-(4-(3-Chloro-4-(2-chloro-3-(6-methoxy-5-(((tetrahydro-2H-pyran-4-yl)amino)methyl)pyridin-2-yl)phenyl)pyridin-2-yl)-2-methoxybenzyl)-2,6-diazaspiro[3.4]octan-7-one]	25
COc1cc(-c2nccc(-c3cccc(-c4ccc(CNC5CCN(C(C)=O)CC5)c(OC)n4)c3Cl)c2Cl)ccc1CN1CCC[C@H](O)C1 [Example 507, (S)-1-(4-(((6-(2-Chloro-3-(3-chloro-2-(4-((3-hydroxypiperidin-1-yl)methyl)-3-methoxyphenyl)pyridin-4-yl)phenyl)-2-methoxypyridin-3-yl)methyl)amino)piperidin-1-yl)ethan-1-one]	45.2
COc1cc(-c2nccc(-c3cccc(-c4ccc(CNC5CCN(C(C)=O)CC5)c(OC)n4)c3Cl)c2Cl)ccc1CN1CCC(CO)CC1 [Example 508, 1-(4-(((6-(2-Chloro-3-(3-chloro-2-(4-((4-(hydroxymethyl)piperidin-1-yl)methyl)-3-methoxyphenyl)pyridin-4-yl)phenyl)-2-methoxypyridin-3-yl)methyl)amino)piperidin-1-yl)ethan-1-one]	35.1
COCC(=O)N1CCC(NCc2ccc(-c3cccc(-c4ccnc(-c5ccc(CN6CCC(O)CC6)c(OC)c5)c4Cl)c3Cl)nc2OC)CC1 [Example 510, 1-(4-(((6-(2-Chloro-3-(3-chloro-2-(4-((4-hydroxypiperidin-1-yl)methyl)-3-methoxyphenyl)pyridin-4-yl)phenyl)-2-methoxypyridin-3-yl)methyl)amino)piperidin-1-yl)-2-methoxyethan-1-one]	27
COc1cc(-c2nccc(-c3cccc(-c4ccc(CN5CC6(C5)CN(C(C)=O)C6)c(OC)n4)c3Cl)c2Cl)ccc1CNC1CCOCC1 [Example 511, 1-(6-((6-(2-Chloro-3-(3-chloro-2-(3-methoxy-4-(((tetrahydro-2H-pyran-4-yl)amino)methyl)phenyl)pyridin-4-yl)phenyl)-2-methoxypyridin-3-yl)methyl)-2,6-diazaspiro[3.3]heptan-2-yl)ethan-1-one]	20.7
COc1cc(-c2nccc(-c3cccc(-c4ccc(CN[C@H]5CC[C@@H](O)CC5)c(OC)n4)c3Cl)c2Cl)ccc1CN1CC2(CNC(=O)C2)C1 [Example 516, 2-(4-(3-Chloro-4-(2-chloro-3-(5-((((1s,4s)-4-hydroxycyclohexyl)amino)-methyl)-6-methoxypyridin-2-yl)phenyl)pyridin-2-yl)-2-methoxybenzyl)-2,6-diazaspiro[3.4]octan-7-one]	50.4

Other lines, results leading:

EC50 [nM]	Compound
32.8	COc1cc(-c2nccc(-c3cccc(-c4ccc(CNC5CCN(C(C)=O)CC5)c(OC)n4)c3Cl)c2Cl)ccc1CNCC1(O)CC1 [Example 512, 1-(4-(((6-(2-Chloro-3-(3-chloro-2-(4-((((1-hydroxycyclopropyl)methyl)amino)methyl)-3-methoxyphenyl)pyridin-4-yl)phenyl)-2-methoxypyridin-3-yl)methyl)amino)piperidin-1-yl)ethan-1-one]
94.5	COc1cc(-c2nccc(-c3cccc(-c4ccc(CNC(C)C)c(OC)n4)c3Cl)c2Cl)ccc1CNC(C)C [Example 514, N-((6-(2-Chloro-3-(3-chloro-2-(4-((isopropylamino)methyl)-3-methoxyphenyl)pyridin-4-yl)phenyl)-2-methoxypyridin-3-yl)methyl)propan-2-amine]
17.8	COc1cc(-c2nccc(-c3cccc(-c4ccc(CN[C@H]5CC[C@H](O)CC5)c(OC)n4)c3Cl)c2Cl)ccc1CN1CC2(CNC(=O)C2)C1 [Example 515, 2-(4-(3-Chloro-4-(2-chloro-3-(5-((((1r,4r)-4-hydroxycyclohexyl)-amino)methyl)-6-methoxypyridin-2-yl)phenyl)pyridin-2-yl)-2-methoxybenzyl)-2,6-diazaspiro[3.4]octan-7-one]
66.6	COc1cc(-c2nccc(-c3cccc(-c4ccc(CN5CC6(CNC6)C5)c(OC)n4)c3Cl)c2Cl)ccc1CN1CC2(CNC(=O)C2)C1 [Example 520, 2-(4-(4-(3-(5-((2,6-Diazaspiro[3.3]heptan-2-yl)methyl)-6-methoxypyridin-2-yl)-2-chlorophenyl)-3-chloropyridin-2-yl)-2-methoxybenzyl)-2,6-diazaspiro[3.4]octan-7-one]
8.63	COc1cc(-c2nccc(-c3cccc(-c4ccc(CN5CC6(CC(O)C6)C5)c(OC)n4)c3Cl)c2Cl)ccc1CN1CC2(CNC(=O)C2)C1 [Example 521, 2-(4-(3-Chloro-4-(2-chloro-3-(5-((6-hydroxy-2-azaspiro[3.3]heptan-2-yl)methyl)-6-methoxypyridin-2-yl)phenyl)pyridin-2-yl)-2-methoxybenzyl)-2,6-diazaspiro[3.4]octan-7-one]
92.4	COc1cc(-c2ncnc(-c3cccc(-c4ccc(CNC[C@@H]5CCC(=O)N5)c(OC)n4)c3Cl)c2C)ccc1CNC[C@@H]1CCC(=O)N1 [Example 523, (S)-5-((((6-(2-Chloro-3-(6-(3-methoxy-4-(((((S)-5-oxopyrrolidin-2-yl)methyl)amino)methyl)phenyl)-5-methylpyrimidin-4-yl)phenyl)-2-methoxypyridin-3-yl)methyl)amino)methyl)pyrrolidin-2-one]
347	COc1cc(-c2nccc(-c3cccc(-c4ccc(CNC5CCCCC5)c(OC)n4)c3Cl)c2Cl)ccc1CNC1CCCCC1 [Example 524, N-((6-(2-Chloro-3-(3-chloro-2-(4-((cyclohexylamino)methyl)-3-methoxyphenyl)pyridin-4-yl)phenyl)-2-methoxypyridin-3-yl)methyl)cyclohexanamine]
56.7	COc1cc(-c2nccc(-c3cccc(-c4ccc(CN5CC6(CCNC6=O)C5)c(OC)n4)c3Cl)c2Cl)ccc1CNC1CCN(C(C)=O)CC1 [Example 525, 2-((6-(3-(2-(4-(((1-Acetylpiperidin-4-yl)amino)methyl)-3-methoxyphenyl)-3-chloropyridin-4-yl)-2-chlorophenyl)-2-methoxypyridin-3-yl)methyl)-2,6-diazaspiro[3.4] octan-5-one]
30.3	COc1cc(-c2nccc(-c3cccc(-c4ccc(CN5CC6(CNC(=O)N6)C5)c(OC)n4)c3Cl)c2Cl)ccc1CNC1CCN(C(C)=O)CC1 [Example 526, 2-((6-(3-(2-(4-(((1-Acetylpiperidin-4-yl)amino)methyl)-3-methoxyphenyl)-3-chloropyridin-4-yl)-2-chlorophenyl)-2-methoxypyridin-3-yl)methyl)-2,5,7-triazaspiro[3.4]octan-6-one]
14.4	COc1nc(-c2ccnc(-c3cccc4c3CC[C@@H]4Oc3nc(OC)c(CNC4CCN(C(C)=O)CC4)cc3C(F)(F)F)c2Cl)ccc1CNC[C@@H]1CCC(=O)N1 [Example 527, (S)-5-((((2′-((S)-1-((5-(((1-acetylpiperidin-4-yl)amino)methyl)-6-methoxy-3-(trifluoromethyl)pyridin-2-yl)oxy)-2,3-dihydro-1H-inden-4-yl)-3′-chloro-6-methoxy-[2,4′-bipyridin]-5-yl)methyl)amino)methyl)pyrrolidin-2-one]
≥ 10000	COc1cc(-c2nccc(-c3cccc(-c4ccc(CNC5CCN(C(C)=O)CC5)c(OC)n4)c3C(F)(F)F)c2Cl)ccc1CNC1CCN(C(C)=O)CC1 [Example 528, 1-(4-(((6-(3-(2-(4-(((1-Acetylpiperidin-4-yl)amino)methyl)-3-methoxyphenyl)-3-chloropyridin-4-yl)-2-(trifluoromethyl)phenyl)-2-methoxypyridin-3-yl)methyl)amino)piperidin-1-yl)ethan-1-one]
41.3	COc1cc(-c2nccc(-c3cccc(-c4ccc(CN5CC6(CCOCC6)C5)c(OC)n4)c3Cl)c2Cl)ccc1CNC1CCOCC1 [Example 531, N-(4-(4-(3-(5-((7-oxa-2-azaspiro[3.5]nonan-2-yl)methyl)-6-methoxypyridin-2-yl)-2-chlorophenyl)-3-chloropyridin-2-yl)-2-methoxybenzyl)tetrahydro-2H-pyran-4-amine]
